Results taken from ChEMBL document CHEMBL5316264, “Identification of N- and C-3-Modified Laudanosoline Derivatives as Novel Influenza PAN Endonuclease Inhibitors” (J Med Chem, 2023).

Assays:
in vitro = conditions: dog, MDCK cells
[1] = Cytotoxicity against MDCK cells incubated for 48 hrs by MTT assay; format: toxicity, cell-based, Canis lupus familiaris; conditions: dog

**Q.** With `COC(=O)[C@@H]1Cc2cc(O)c(O)cc2[C@H](Cc2ccc(O)c(O)c2)N1C(=O)C1CCCCC1` as the compound, how does the selectivity ratio (in vitro) read?
**A.** 3.4

**Q.** And the CC50 at 48 h [1]?
**A.** 64.5 µM

**Q.** For `CN(C)C(=O)[C@@H]1Cc2cc(O)c(O)cc2[C@H](Cc2ccc(O)c(O)c2)N1C(=O)c1ccccc1Cl`, which selectivity ratio (in vitro) is on record?
**A.** 10.8

**Q.** What about the CC50 at 48 h [1] of the same compound?
**A.** 137 µM

**Q.** Which results are given for `C=CC(=O)N1[C@H](C(=O)OC)Cc2cc(O)c(O)cc2[C@@H]1Cc1ccc(O)c(O)c1`?
**A.** selectivity ratio (in vitro): 8.9; CC50 at 48 h [1]: 47.5 µM

**Q.** Which selectivity ratio (in vitro) does the source give for `COC(=O)[C@@H]1Cc2cc(O)c(O)cc2[C@H](Cc2ccc(O)c(O)c2)N1C(=O)c1cccc([N+](=O)[O-])c1` here?
**A.** > 5.3

**Q.** What about the CC50 at 48 h [1] of the same compound?
**A.** > 101 µM

**Q.** What does the source list for `COC(=O)[C@@H]1Cc2cc(O)c(O)cc2[C@H](Cc2ccc(O)c(O)c2)N1C(=O)c1ccc(C(F)(F)F)cc1`?
**A.** selectivity ratio (in vitro): > 10.8; CC50 at 48 h [1]: > 101 µM

**Q.** What does the source list for `COC(=O)[C@@H]1Cc2cc(O)c(O)cc2[C@H](Cc2ccc(O)c(O)c2)N1C(=O)c1ccccc1F`?
**A.** selectivity ratio (in vitro): 29.7; CC50 at 48 h [1]: 82.3 µM

**Q.** What does the source list for `COC(=O)[C@@H]1Cc2cc(O)c(O)cc2[C@H](Cc2ccc(O)c(O)c2)N1C(=O)c1ccc2ccccc2c1`?
**A.** selectivity ratio (in vitro): 15.6; CC50 at 48 h [1]: 45.2 µM

**Q.** Which selectivity ratio (in vitro) does the source give for `O=C(O)[C@@H]1Cc2cc(O)c(O)cc2[C@H](Cc2ccc(O)c(O)c2)N1C(=O)c1ccccc1Cl` here?
**A.** 5.4

**Q.** And the CC50 at 48 h [1]?
**A.** 103 µM

**Q.** Which results are given for `COC(=O)COC(=O)[C@@H]1Cc2cc(O)c(O)cc2[C@H](Cc2ccc(O)c(O)c2)N1C(=O)c1ccccc1Cl`?
**A.** selectivity ratio (in vitro): 67.1; CC50 at 48 h [1]: 163 µM

**Q.** For `COC(=O)[C@@H]1Cc2cc(O)c(O)cc2[C@H](Cc2ccc(O)c(O)c2)N1C(=O)c1ccccc1Br`, which selectivity ratio (in vitro) is on record?
**A.** > 29.5

**Q.** What about the CC50 at 48 h [1] of the same compound?
**A.** > 101 µM

**Q.** What does the source list for `O=C(Nc1ccccc1)[C@@H]1Cc2cc(O)c(O)cc2[C@H](Cc2ccc(O)c(O)c2)N1C(=O)c1ccccc1Cl`?
**A.** selectivity ratio (in vitro): 10.8; CC50 at 48 h [1]: 169 µM

**Q.** For `COC(=O)[C@@H]1Cc2cc(O)c(O)cc2[C@H](Cc2ccc(O)c(O)c2)N1C(=O)c1cccc(C(F)(F)F)c1`, which selectivity ratio (in vitro) is on record?
**A.** > 11.8

**Q.** And the CC50 at 48 h [1]?
**A.** > 101 µM

**Q.** For `COC(=O)[C@@H]1Cc2cc(O)c(O)cc2[C@H](Cc2ccc(O)c(O)c2)N1C(=O)c1cccc(Cl)c1`, which selectivity ratio (in vitro) is on record?
**A.** 25.3

**Q.** And the CC50 at 48 h [1]?
**A.** 61.1 µM

**Q.** What does the source list for `O=C(O[C@@H]1Cc2c(O)cc(O)cc2O[C@@H]1c1cc(O)c(O)c(O)c1)c1cc(O)c(O)c(O)c1` [EPIGALOCATECHIN GALLATE]?
**A.** selectivity ratio (in vitro): > 3.3; CC50 at 48 h [1]: > 100 µM

**Q.** For `CCOC(=O)[C@@H]1Cc2cc(O)c(O)cc2[C@H](Cc2ccc(O)c(O)c2)N1C(=O)c1ccccc1Cl`, which selectivity ratio (in vitro) is on record?
**A.** 30.7

**Q.** What about the CC50 at 48 h [1] of the same compound?
**A.** 98.5 µM

**Q.** What does the source list for `COC(=O)[C@@H]1Cc2cc(O)c(O)cc2[C@H](Cc2ccc(O)c(O)c2)N1C(=O)c1c(Cl)cccc1Cl`?
**A.** selectivity ratio (in vitro): 15.5; CC50 at 48 h [1]: 81.6 µM

**Q.** Which selectivity ratio (in vitro) does the source give for `O=C1c2c(O)c(=O)ccn2N([C@@H]2c3ccccc3SCc3c2ccc(F)c3F)[C@@H]2COCCN12` [BALOXAVIR] here?
**A.** > 11700

**Q.** And the CC50 at 48 h [1]?
**A.** > 100 µM

**Q.** What does the source list for `COC(=O)[C@@H]1Cc2cc(O)c(O)cc2[C@H](Cc2ccc(O)c(O)c2)N1C(=O)c1ccc(Cl)cc1`?
**A.** selectivity ratio (in vitro): 34.5; CC50 at 48 h [1]: 87.4 µM

**Q.** Which results are given for `O=C(Oc1ccccc1)[C@@H]1Cc2cc(O)c(O)cc2[C@H](Cc2ccc(O)c(O)c2)N1C(=O)c1ccccc1Cl`?
**A.** selectivity ratio (in vitro): 52.1; CC50 at 48 h [1]: 70.3 µM

**Q.** For `COC(=O)[C@@H]1Cc2cc(O)c(O)cc2[C@H](Cc2ccc(O)c(O)c2)N1C(=O)c1cccc(F)c1`, which selectivity ratio (in vitro) is on record?
**A.** 25.8

**Q.** What about the CC50 at 48 h [1] of the same compound?
**A.** 73.7 µM

**Q.** With `CCCCCCC(=O)N1[C@H](C(=O)OC)Cc2cc(O)c(O)cc2[C@@H]1Cc1ccc(O)c(O)c1` as the compound, how does the selectivity ratio (in vitro) read?
**A.** 5.1

**Q.** And the CC50 at 48 h [1]?
**A.** 84.3 µM

**Q.** What does the source list for `COC(=O)[C@@H]1Cc2cc(O)c(O)cc2[C@H](Cc2ccc(O)c(O)c2)N1C(=O)c1ccccc1[N+](=O)[O-]`?
**A.** selectivity ratio (in vitro): > 9.2; CC50 at 48 h [1]: > 101 µM

**Q.** With `COC(=O)[C@@H]1Cc2cc(O)c(O)cc2[C@H](Cc2ccc(O)c(O)c2)N1C(=O)c1ccc(Cl)cc1Cl` as the compound, how does the selectivity ratio (in vitro) read?
**A.** > 21.2

**Q.** And the CC50 at 48 h [1]?
**A.** > 101 µM

**Q.** Which results are given for `CN1CCc2cc(O)c(O)cc2C1Cc1ccc(O)c(O)c1` (racemic)?
**A.** selectivity ratio (in vitro): > 5.4; CC50 at 48 h [1]: > 200 µM
